Data on one compound can be found in patent publication US8143241B2, “DNA damage repair inhibitors for treatment of cancer” (Kudos Pharmaceuticals Limited, priority 2003, dated 2012).

This assay deals with MCF7-scrambled cells. In words: Clonal survival, BRCA1 wild-type MCF7-scrambled cells. Type of assay: cell-based, human. The note with it: continuous exposure 12-14 days. From the text: Log concentration of inhibitor is plotted against log surviving fraction of cells.
The MCF7 scrambled and MCF7-3.23 cell lines were generated by stable transfection of MCF7 mammary adenocarcinoma cells with gene specific pSUPER constructs. Gene specific pSUPER constructs were generated expressing the following RNAi target sequences: (i) human BRCA1 (SEQ ID NO:3) 5r-[…]-3′ (ii) scrambled control 5′-(SEQ ID NO:4) […]-3′. A 1.8 kb fragment containing the human EF1a promoter and the blasticidin resistance gene (bsd) was subcloned from pEFBsd (Invitrogen) into the SapI site of the resultant pSUPER constructs, generated pSUPER-Bsd-BRCA1 and pSUPER-Bsd-scrambled. MCF7 cells were transfected with these plasmids using FuGene6 (Roche) according to the manufacturers instructions. After selection in blasticidin, resistant clones were assessed by real time PCR for silencing of BRCA1 mRNA (Egawa et al Oncology. 2001; 61(4): 293-8; Egawa et al Int J. Cancer. 2001 Jul. 20; 95(4):255-9). Clones with reduced levels of BRCA1 mRNA were cultured (under blasticidin selection) over 8 passages and the real-time assay repeated.

In the case of `O=C1CCC(=O)N1c1cc(Cc2n[nH]c(=O)c3ccccc23)ccc1F` [KU0058684], the “sensitivity (clonal survival)” value is reported as “both cell lines were sensitive”.
